The record followed here is patent US12637440B2, “Amide derivative useful as diacylglycerol acyltransferase 2 inhibitor, and use thereof” (LG CHEM, LTD., priority 2019, dated 2026).

In the assay the target is T1, Recombinant human DGAT2 protein (Homo sapiens, UniProt Q96PD7).
T1 construct: FLAG (DYKDDDDK); (N); made in house; host or cells: Sf-21 insect cells (BacPAK baculovirus system); used as a membrane preparation
T1 sequence (Q96PD7 1-388): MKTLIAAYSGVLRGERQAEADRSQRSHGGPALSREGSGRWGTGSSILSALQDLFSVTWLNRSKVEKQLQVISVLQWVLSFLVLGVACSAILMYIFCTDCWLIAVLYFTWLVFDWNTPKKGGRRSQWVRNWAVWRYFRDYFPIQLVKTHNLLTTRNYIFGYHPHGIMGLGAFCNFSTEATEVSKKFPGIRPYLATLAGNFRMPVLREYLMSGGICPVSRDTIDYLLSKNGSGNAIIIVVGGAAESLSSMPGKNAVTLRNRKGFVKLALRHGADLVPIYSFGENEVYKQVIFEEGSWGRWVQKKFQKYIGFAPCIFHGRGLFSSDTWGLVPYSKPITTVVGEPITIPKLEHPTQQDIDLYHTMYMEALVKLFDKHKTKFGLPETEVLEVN
The assay is described as follows: Measurement of inhibitory effect against DGAT2 enzyme activity (SPA, Phospholipid FlashPlate, [14C]-TG production). It counts as biochemical. To be noted: concentration inhibiting [14C]-labeled triacyl glycerol (TG) production by 50%; 2 μg DGAT2-membrane protein from Sf-21 cells, 37° C. On the procedure: Experimental Example: Measurement of Inhibitory Effect Against DGAT2 Enzyme Activity
In order to prepare the pBacPAK9-DGAT2, which is DGAT2 expression vector, the human DGAT2 gene amplified by polymerase chain reaction (PCR) was cloned into the EcoR1 and Xho1 sites of the pBacPAK9 (clonctech) vector. The nucleotide sequence of the primers used in PCR was the forward primer 5′ […] and the reverse primer 5′ […]. The composition of the reaction solution was to contain 50 ng of cDNA clone (OriGene), 200 μM of dATP, dCTP, dTTP, dGTP, 200 nM of each primer, 1 unit of Tag DNA Polymerase (Toyobo), 1×PCR buffer, and the final volume was adjusted to 20 μl. The reaction conditions were denatured at 95° C. for 5 minutes, followed by 30 times of 94° C. for 20 seconds, 60° C. for 20 seconds, and 72° C. for 90 seconds, followed by further reaction at 72° C. for 7 minutes.
Recombinant human DGAT2 protein was expressed in Sf-21 cells, which are insect cells, by using the BacPack baculovirus expression system (Clontech). The brief manufacturing process is as follows. First, the pBacPAK9-DGAT2 expression vector was transfected with BacPAK6 virus DNA (Bsu36I digest) into sf21 cells using Bacfectin to prepare a recombinant DGAT2 expressing baculovirus. The thus prepared baculovirus was infected with Sf-21 cells at 10 MOI (multiplicity of infection), and after 72 hours, infected insect cells were collected and membrane proteins were isolated. For membrane protein separation, the cell pellet was dissolved in a sucrose solution containing 250 mM sucrose, 10 mM Tris (pH 7.4), and 1 mM ethylenediamine-tetraacetic acid (EDTA), and then homogenized by using a dounce homogenizer, and the supernatant was taken by centrifuging at 600×g for 15 minutes, and centrifuged at 100,000×g for 1 hour to discard the supernatant, and the remaining pellet was resuspended in 20 mM HEPES buffer (pH 7.4). The prepared DGAT2 overexpressing membrane protein was dispensed in 100 μl and stored at −80° C. until use. Protein concentration was quantified by using the BCA Protein Assay Kit (Thermo Scientific).
In vitro DGAT2 analysis was performed using a Phospholipid Flash Plate (PerkinElmer) based on the principle of SPA (Scintillation Proximity Assay). First, DGAT2 inhibition compounds serially diluted 5 times from 3 nM to 10 μM (final concentration, 1% DMSO) were mixed in a buffer solution containing 2 μg DGAT2-membrane protein and 20 mM HEPES, 20 mM MgCl2, 1 mg/mL BSA, 50 μM 1,2 sn-oleoyl glycerol (Sigma), put in a 96-well flash plate (FlashPlate) and reacted at 37° C. for 20 minutes, and then 1 μM [14C] ole oil CoA (PerkinElmer, NEC651050UC) was added to be a final volume of 100 μL and further reacted at 37° C. for 15 minutes. After the enzymatic reaction was completed, 100 μL of isopropanol was added, the plate was sealed with a film, and the plate was shaken slowly in a plate shaker. The next day, the amplified scintillation signal (cpm) in Topcounter (Packard) was measured to measure the degree of production of [14C]-labeled triacyl glycerol (TG) as a reaction product. The measured value when the compound was not treated was used as a positive control, and the measured value of the compound treated group was calculated as a relative % to measure the inhibition effect of the compound on TG production.
As to `CCOc1ccccc1O[C@@H]1CCCN(c2cncc(NC(=O)CCc3cc(C)c(C(=O)O)c(C)c3)n2)C1` [Example 55, (R)-4-(3-((6-(3-(2-ethoxyphenoxy)piperidin-1-yl)pyrazin-2-yl)amino)-3-oxopropyl)-2,6-dimethylbenzoic acid], the half-maximal inhibitory concentration (IC50) worked out at 280 nM.
Turning to `CCOc1ccccc1O[C@@H]1CCCN(c2cncc(NC(=O)CCc3ccc(N4CCC(C(=O)O)CC4)cc3)n2)C1` [Example 56, (R)-1-(4-(3-((6-(3-(2-ethoxyphenoxy)piperidin-1-yl)pyrazin-2-yl)amino)-3-oxopropyl)phenyl)piperidine-4-carboxylic acid], the IC50 turned out to be 820 nM.
Regarding `CCOc1ccccc1O[C@@H]1CCCN(c2cncc(NC(=O)c3cc(F)c(N4CCC(C(=O)O)CC4)c(F)c3)n2)C1` [Example 57], the IC50 was determined as 5300 nM.
For `CCOc1ccccc1O[C@@H]1CCCN(c2cncc(NC(=O)c3cc(F)c(N4CCC(CC(=O)O)CC4)c(F)c3)n2)C1` [Example 58], the 50% inhibitory concentration (IC50) was determined as 7500 nM.
As to `CCOc1ccccc1O[C@@H]1CCCN(c2cncc(NC(=O)C3CCN(c4ccc(C(=O)O)cc4)CC3)n2)C1` [Example 59, (R)-4-(4-((6-(3-(2-ethoxyphenoxy)piperidin-1-yl)pyrazin-2-yl)carbamoyl)piperidin-1-yl)benzoic acid], the IC50 amounted to 1000 nM.
As for `CCOc1ccccc1O[C@@H]1CCCN(c2cncc(NC(=O)CCc3ccc(OC(C)(C)C(=O)O)cc3)n2)C1` [Example 60, (R)-2-(4-(3-((6-(3-(2-ethoxyphenoxy)piperidin-1-yl)pyrazin-2-yl)amino)-3-oxopropyl)phenoxy)-2-methylpropanoic acid], the half-inhibitory concentration (IC50) was 420 nM.
The figure for `CCOc1ccccc1O[C@@H]1CCCN(c2cncc(NC(=O)CCc3ccc(CCC(=O)O)cc3)n2)C1` [Example 61, (R)-3-(4-(3-((6-(3-(2-ethoxyphenoxy)piperidin-1-yl)pyrazin-2-yl)amino)-3-oxopropyl)phenyl)propanoic acid] is 150 nM.
As to `CCOc1ccccc1O[C@@H]1CCCN(c2cncc(NC(=O)c3ccc(Oc4ccc(C(=O)O)cc4)cc3)n2)C1` [Example 62, (R)-4-(4-((6-(3-(2-ethoxyphenoxy)piperidin-1-yl)pyrazin-2-yl)carbamoyl)phenoxy)benzoic acid], the IC50 is 2100 nM.
`CCOc1ccccc1O[C@@H]1CCCN(c2cncc(NC(=O)Cc3ccc(C[C@@H](C)C(=O)O)cc3)n2)C1` [Example 63]: the IC50 worked out at 140 nM.
Take `CCOc1ccccc1O[C@@H]1CCCN(c2cncc(NC(=O)Cc3ccc(C[C@H](C)C(=O)O)cc3)n2)C1` [Example 64]: the 50% inhibitory concentration (IC50) turned out to be 120 nM.
Next, `CCOc1ccccc1O[C@@H]1CCCN(c2cccc(NC(=O)Cc3ccc(CC(=O)O)cc3)n2)C1` [Example 66, (R)-2-(4-(2-((6-(3-(2-ethoxyphenoxy)piperidin-1-yl)pyridin-2-yl)amino)-2-oxoethyl)phenyl)acetic acid]: 2700 nM; `CCOc1ccccc1O[C@@H]1CCCN(c2cncc(NC(=O)Nc3ccc(CC(=O)O)cc3)n2)C1` [Example 67, (R)-2-(4-(3-(6-(3-(2-ethoxyphenoxy)piperidin-1-yl)pyrazin-2-yl)ureido)phenyl)acetic acid]: 6100 nM; `CCOc1ccccc1O[C@@H]1CCCN(c2cccc(NC(=O)Cc3ccc(C(C)(C)C(=O)O)cc3)n2)C1` [Example 68, (R)-2-(4-(2-((6-(3-(2-ethoxyphenoxy)piperidin-1-yl)pyridin-2-yl)amino)-2-oxoethyl)phenyl)-2-methylpropanoic acid]: 630 nM.
Consider `CCOc1ccccc1O[C@@H]1CCCN(c2cncc(NC(=O)Cc3ccc(C(C)(C)C(=O)O)cc3)n2)C1` [Example 69, (R)-2-(4-(2-((6-(3-(2-ethoxyphenoxy)piperidin-1-yl)pyrazin-2-yl)amino)-2-oxoethyl)phenyl)-2-methylpropanoic acid], for which the IC50 came to 970 nM.

By IC50 is commonly meant the point on the concentration scale where inhibition reaches its midpoint.
